20 compounds from patent publication US20260138978A1, “POSITIVE ALLOSTERIC MODULATORS OF THE MUSCARINIC ACETYLCHOLINE RECEPTOR M1” (Vanderbilt University, priority 2022, published 2026) can be followed below.

For assay [1], the target named is T1, human mAChRM1 (Homo sapiens, UniProt P11229).
T1 construct: host or cells: CHO-K1
T1 sequence (P11229 1-460): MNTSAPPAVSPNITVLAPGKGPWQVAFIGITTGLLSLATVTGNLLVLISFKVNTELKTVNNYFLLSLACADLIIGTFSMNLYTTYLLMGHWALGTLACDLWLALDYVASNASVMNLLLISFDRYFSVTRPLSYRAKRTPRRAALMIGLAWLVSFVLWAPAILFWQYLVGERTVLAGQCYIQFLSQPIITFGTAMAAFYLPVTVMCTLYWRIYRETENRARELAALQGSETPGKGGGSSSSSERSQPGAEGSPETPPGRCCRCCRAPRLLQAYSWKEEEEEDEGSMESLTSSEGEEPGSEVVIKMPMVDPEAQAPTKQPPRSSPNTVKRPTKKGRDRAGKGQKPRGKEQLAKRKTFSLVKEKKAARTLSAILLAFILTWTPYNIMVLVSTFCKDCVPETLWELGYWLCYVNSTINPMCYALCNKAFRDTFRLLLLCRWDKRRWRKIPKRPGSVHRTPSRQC
In words: mAChR M1 cell-based functional assay (calcium mobilization), positive allosteric modulator activity: increase in the EC20 acetylcholine response. The following applies: for Emax: PAM mode; for EC50: increase in the EC20 acetylcholine response, read-out: PAM Activity Human M1 EC50. Summed up: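 CHO-K1 cells stably expressing human M1, loaded with Fluo-4 AM; calcium flux recorded on FDSS at 1 Hz over 300 s following compound addition. PAM activity is the concentration-dependent increase of an EC20 acetylcholine response; EC50 and Emax from four-parameter logistic fits of 11-point, 1:3 concentration series.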

Assay [2] concerns the target T1, human mAChRM1. Nature of the assay: mAChR M1 cell-based functional assay (calcium mobilization), agonist activity upon compound addition, Emax relative to acetylcholine maximum. The following applies: for Agonist Activity Human M1 EC50 / EC50: calcium mobilization upon compound addition; for Emax: relative to the maximum for acetylcholine. Summed up:
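CHO-K1 cells stably expressing human M1 were loaded with Fluo-4 AM for 50 min at 37 °C. Compound was added 4 s into a 300 s FDSS read at 1 Hz, over 11-point 1:3 dilution curves. Agonism was taken as a concentration-dependent rise in calcium fluorescence ratio, with Emax expressed relative to the acetylcholine maximum from four-parameter logistic fits.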

Consider `[2H]C1([2H])c2ncccc2C(=O)N1Cc1ccc(-c2ccc(C(C)(C)O)c3nn(C)cc23)cc1C(C)C` [Compound 153, 6-(4-(7-(2-hydroxypropan-2-yl)-2-methyl-2H-indazol-4-yl)-2-isopropylbenzyl)-6,7-dihydro-5H-pyrrolo[3,4-b]pyridin-5-one-7,7-d2], for which, in assay [1], the maximal effect (Emax) (commonly the maximal effect, on the per cent scale that the assay sets) was determined as 35% and the half-maximal effective concentration (EC50) – broadly, the concentration needed to bring the measured effect to its halfway point – was no less than 10 µM. For the same compound, in assay [2], the “Agonist Activity Human M1 EC50” value is “inactive”.

On to `CCc1cnc2c(c1)C(=O)N(Cc1c(F)cc(-c3ccc(C(C)(C)O)c4nn(C)cc34)cc1F)C2` [Compound 176, 6-(2,6-difluoro-4-(7-(2-hydroxypropan-2-yl)-2-methyl-2H-indazol-4-yl)benzyl)-3-ethyl-6,7-dihydro-5H-pyrrolo[3,4-b]pyridin-5-one], for which, in assay [1], the Emax was 78% and the 50% effective concentration (EC50) was determined as 1.09 µM. Moreover, in assay [2], the “Agonist Activity Human M1 EC50” value was “inactive”.

Regarding `CC(C)COc1cc(-c2ccc(C(C)(C)O)cc2)cc(F)c1CN1Cc2ncccc2C1=O` [Compound 14, 6-((3-Fluoro-4′-(2-hydroxypropan-2-yl)-5-isobutoxy-[1,1′-biphenyl]-4-yl)methyl)-6,7-dihydro-5H-pyrrolo[3,4-b]pyridin-5-one], in assay [1], the Emax was 76% and the half-maximal effective concentration (EC50) is 2.32 µM. In addition, the “Agonist Activity Human M1 EC50” value in assay [2] is “inactive”.

Take `Cn1cc2c(-c3cc(F)c(CN4Cc5ncccc5C4=O)c(F)c3)ccc(C3(O)COC3)c2n1` [Compound 89, 6-(2,6-Difluoro-4-(7-(3-hydroxyoxetan-3-yl)-2-methyl-2H-indazol-4-yl)benzyl)-6,7-dihydro-5H-pyrrolo[3,4-b]pyridin-5-one]: in assay [1], the Emax was found to be 82% and the half-maximal effective concentration (EC50) was determined as 0.254 µM. Moreover, in assay [2], the concentration for a half-maximal effect (EC50) is 6.84 µM and the Emax was 11%.

For `[2H]C1([2H])c2ncccc2C(=O)N1Cc1c(F)cc(-c2ccc(C(C)(C)O)c3nn(C)cc23)cc1C1CCCC1` [Compound 152, 6-(2-cyclopentyl-6-fluoro-4-(7-(2-hydroxypropan-2-yl)-2-methyl-2H-indazol-4-yl)benzyl)-6,7-dihydro-5H-pyrrolo[3,4-b]pyridin-5-one-7,7-d2], in assay [1], the maximal response (Emax) worked out at 74% and the concentration giving a half-maximal response (EC50) came out at 3.36 µM. Further, the “Agonist Activity Human M1 EC50” value in assay [2] was “inactive”.

`[2H]C([2H])([2H])n1cc2c(-c3cc(C)c(CN4Cc5ncccc5C4=O)c(F)c3)ccc(C(C)(C)O)c2n1` (single isomer, unassigned) [Compound 15, 6-(2-fluoro-4-(7-(2-hydroxypropan-2-yl)-2-(methyl-d3)-2H-indazol-4-yl)-6-methylbenzyl)-6,7-dihydro-5H-pyrrolo[3,4-b]pyridin-5-one]: in assay [1], the Emax was found to be 77% and the half-maximal effective concentration (EC50) is 0.081 µM. Also, in assay [2], the EC50 was 2.99 µM and the Emax came to 41%.

`Cn1cc2cc(-c3ccc(CN4Cc5cccc(F)c5C4=O)c(F)c3)cc(C(C)(C)O)c2n1` [Compound 166, 7-fluoro-2-(2-fluoro-4-(7-(2-hydroxypropan-2-yl)-2-methyl-2H-indazol-5-yl)benzyl)isoindolin-1-one]: in assay [1], the Emax was found to be 76% and the concentration for a half-maximal effect (EC50) was 0.744 µM. Besides, the “Agonist Activity Human M1 EC50” value in assay [2] is “inactive”.

`CCC(C)(O)c1ccc(-c2cc(F)c(CN3Cc4ncccc4C3=O)c(F)c2)c2cn(C)nc12` (stereo not drawn) [Compound 82, 6-(2,6-difluoro-4-(7-(2-hydroxybutan-2-yl)-2-methyl-2H-indazol-4-yl)benzyl)-6,7-dihydro-5H-pyrrolo[3,4-b]pyridin-5-one]: in assay [1], the Emax turned out to be 80% and the EC50 stood at 0.138 µM. Also, the “Agonist Activity Human M1 EC50” value in assay [2] was “inactive”.

As to `Cc1cc(-c2ccc(C(O)(C3CC3)C3CC3)c3nn(C)cc23)cc(F)c1CN1Cc2ncccc2C1=O` [Compound 85, 6-(4-(7-(dicyclopropyl(hydroxy)methyl)-2-methyl-2H-indazol-4-yl)-2-fluoro-6-methylbenzyl)-6,7-dihydro-5H-pyrrolo[3,4-b]pyridin-5-one], in assay [1], the Emax turned out to be 81% and the concentration for a half-maximal effect (EC50) worked out at 1.7 µM. Further, the “Agonist Activity Human M1 EC50” value in assay [2] is “inactive”.

For `Cc1cnc2c(c1)C(=O)N(Cc1c(F)cc(-c3ccc(C(C)(C)O)c4nn(C)cc34)cc1F)C2` [Compound 174, 6-(2,6-difluoro-4-(7-(2-hydroxypropan-2-yl)-2-methyl-2H-indazol-4-yl)benzyl)-3-methyl-6,7-dihydro-5H-pyrrolo[3,4-b]pyridin-5-one], the values for the Emax in assay [1] and in assay [2] were 80% and 17%, respectively. In addition, the EC50 is 0.531 µM in assay [1] and no less than 10 µM in assay [2].

In the case of `Cn1cc2c(-c3ccc(CN4Cc5cccc(F)c5C4=O)c(F)c3F)ccc(C(C)(C)O)c2n1` [Compound 164, 2-(2,3-difluoro-4-(7-(2-hydroxypropan-2-yl)-2-methyl-2H-indazol-4-yl)benzyl)-7-fluoroisoindolin-1-one], in assay [1], the maximal effect (Emax) amounted to 71% and the EC50 came out at 1.21 µM. In assay [2], the “Agonist Activity Human M1 EC50” value is “inactive”.

As to `Cc1cc(-c2cc(C(C)(C)O)c3cn(C)nc3c2)cc(F)c1CN1Cc2ncccc2C1=O` [Compound 20, 6-(2-fluoro-4-(4-(2-hydroxypropan-2-yl)-2-methyl-2H-indazol-6-yl)-6-methylbenzyl)-6,7-dihydro-5H-pyrrolo[3,4-b]pyridin-5-one], in assay [1], the Emax worked out at 47% and the EC50 was no less than 10 µM. In addition, in assay [2], the “Agonist Activity Human M1 EC50” value was “inactive”.

With `[2H]C([2H])([2H])C(O)(c1ccc(-c2cc(F)c(CN3Cc4ncccc4C3=O)c(F)c2)c2cn(C)nc12)C([2H])([2H])[2H]` [Compound 93, 6-(2,6-difluoro-4-(7-(2-hydroxypropan-2-yl-1,1,1,3,3,3-d6)-2-methyl-2H-indazol-4-yl)benzyl)-6,7-dihydro-5H-pyrrolo[3,4-b]pyridin-5-one], in assay [1], the maximum response (Emax) stood at 83% and the EC50 was 0.076 µM. Moreover, in assay [2], the half-maximal effective concentration (EC50) stood at 1.87 µM and the Emax is 22%.

In the case of `Cc1c(C(C)(C)O)ccc(-c2cc(F)c(CN3Cc4ncccc4C3=O)c(F)c2)c1F` [Compound 56, 6-((2′,3,5-trifluoro-4′-(2-hydroxypropan-2-yl)-3′-methyl-[1,1′-biphenyl]-4-yl)methyl)-6,7-dihydro-5H-pyrrolo[3,4-b]pyridin-5-one], in assay [1], the maximal effect (Emax) was 50% and the half-maximal effective concentration (EC50) is 5.16 µM. Moreover, the “Agonist Activity Human M1 EC50” value in assay [2] was “inactive”.

Consider `[2H]C1([2H])c2ncccc2C(=O)N1Cc1ccc(-c2ccc(C(C)(C)O)c3nn(C)cc23)c(F)c1F` [Compound 149, 6-(2,3-Difluoro-4-(7-(2-hydroxypropan-2-yl)-2-methyl-2H-indazol-4-yl)benzyl)-6,7-dihydro-5H-pyrrolo[3,4-b]pyridin-5-one-7,7-d2], for which, in assay [1], the maximal effect (Emax) came to 88% and the EC50 is 0.623 µM. Further, the “Agonist Activity Human M1 EC50” value in assay [2] is “inactive”.

`CC(C)(O)c1ccc(-c2cc(F)c(CN3Cc4ncccc4C3=O)cc2F)cc1` [Compound 49, 6-((2,5-difluoro-4′-(2-hydroxypropan-2-yl)-[1,1′-biphenyl]-4-yl)methyl)-6,7-dihydro-5H-pyrrolo[3,4-b]pyridin-5-one]: in assay [1], the Emax stood at 66% and the half-maximal effective concentration (EC50) was found to be 1.2 µM. Also, in assay [2], the “Agonist Activity Human M1 EC50” value is “inactive”.

Turning to `Cn1cc2c(-c3ccc(CN4Cc5ncccc5C4=O)c(F)c3F)ccc(C(C)(C)O)c2n1` [Compound 63, 6-(2,3-difluoro-4-(7-(2-hydroxypropan-2-yl)-2-methyl-2H-indazol-4-yl)benzyl)-6,7-dihydro-5H-pyrrolo[3,4-b]pyridin-5-one], in assay [1], the Emax stood at 64% and the EC50 is 0.445 µM. In addition, in assay [2], the “Agonist Activity Human M1 EC50” value is “inactive”.

Take `Cn1cc2c(-c3cc(F)c(CN4Cc5ncccc5C4=O)c(F)c3)ccc(C3(O)CCOC3)c2n1` (stereo not drawn) [Compound 90, 6-(2,6-difluoro-4-(7-(3-hydroxytetrahydrofuran-3-yl)-2-methyl-2H-indazol-4-yl)benzyl)-6,7-dihydro-5H-pyrrolo[3,4-b]pyridin-5-one]: in assay [1], the Emax is 83% and the half-maximal effective concentration (EC50) amounted to 0.116 µM. In assay [2], the 50% effective concentration (EC50) turned out to be 2.46 µM and the Emax was 20%.

Turning to `Cn1cc(-c2cc(F)c(CN3Cc4ncccc4C3=O)c(F)c2)c(C(C)(C)O)n1` [Compound 28, 6-(2,6-difluoro-4-(3-(2-hydroxypropan-2-yl)-1-methyl-1H-pyrazol-4-yl)benzyl)-6,7-dihydro-5H-pyrrolo[3,4-b]pyridin-5-one], in assay [1], the Emax was found to be 55% and the EC50 is no less than 10 µM. Besides, the “Agonist Activity Human M1 EC50” value in assay [2] is “inactive”.

In the case of `Cc1cc(-c2ccc(C(C)(C)O)c3nn(C)cc23)cc(Cl)c1CN1Cc2ncccc2C1=O` [Compound 65, 6-(2-chloro-4-(7-(2-hydroxypropan-2-yl)-2-methyl-2H-indazol-4-yl)-6-methylbenzyl)-6,7-dihydro-5H-pyrrolo[3,4-b]pyridin-5-one], the results for the Emax in assay [1] and in assay [2] were 65% and 28%, respectively. The half-maximal effective concentration (EC50) in assay [1] was 0.135 µM; in assay [2], no less than 10 µM.
